The source made the active and inactive calls. The calls are words filed in the database; no cut-off is given here.
Columns and labels:
NUGC-3 [1] = assay: Antiproliferative activity against human NUGC3 cells at 0.3 uM by SRB assay; format: functional
NUGC-3 [2] = assay: Antiproliferative activity against human NUGC3 cells at 0.1 uM by SRB assay; format: functional
NUGC-3 [3] = assay: Antiproliferative activity against human NUGC3 cells at 1 uM by SRB assay; format: functional
NUGC-3 [4] = assay: Antiproliferative activity against human NUGC3 cells at 10 uM by SRB assay; format: functional
NUGC-3 [5] = assay: Antiproliferative activity against human NUGC3 cells at 3 uM by SRB assay; format: functional
MDA-MB-231 [6] = assay: Antiproliferative activity against human MDA-MB-231 cells at 0.1 uM by SRB assay; format: functional
MDA-MB-231 [7] = assay: Antiproliferative activity against human MDA-MB-231 cells at 0.3 uM by SRB assay; format: functional
MDA-MB-231 [8] = assay: Antiproliferative activity against human MDA-MB-231 cells at 1 uM by SRB assay; format: functional
MDA-MB-231 [9] = assay: Antiproliferative activity against human MDA-MB-231 cells at 10 uM by SRB assay; format: functional
MDA-MB-231 [10] = assay: Antiproliferative activity against human MDA-MB-231 cells at 3 uM by SRB assay; format: functional
ACHN [11] = assay: Antiproliferative activity against human ACHN cells at 0.1 uM by SRB assay; format: functional
ACHN [12] = assay: Antiproliferative activity against human ACHN cells at 1 uM by SRB assay; format: functional
ACHN [13] = assay: Antiproliferative activity against human ACHN cells at 0.3 uM by SRB assay; format: functional
ACHN [14] = assay: Antiproliferative activity against human ACHN cells at 3 uM by SRB assay; format: functional
ACHN [15] = assay: Antiproliferative activity against human ACHN cells at 10 uM by SRB assay; format: functional
NCI-H23 [16] = assay: Antiproliferative activity against human NCI-H23 cells at 0.3 uM by SRB assay; format: functional
NCI-H23 [17] = assay: Antiproliferative activity against human NCI-H23 cells at 0.1 uM by SRB assay; format: functional
NCI-H23 [18] = assay: Antiproliferative activity against human NCI-H23 cells at 3 uM by SRB assay; format: functional
NCI-H23 [19] = assay: Antiproliferative activity against human NCI-H23 cells at 1 uM by SRB assay; format: functional
NCI-H23 [20] = assay: Antiproliferative activity against human NCI-H23 cells at 10 uM by SRB assay; format: functional
PC-3 [21] = assay: Antiproliferative activity against human PC3 cells at 0.1 uM by SRB assay; format: functional
PC-3 [22] = assay: Antiproliferative activity against human PC3 cells at 1 uM by SRB assay; format: functional
PC-3 [23] = assay: Antiproliferative activity against human PC3 cells at 0.3 uM by SRB assay; format: functional
PC-3 [24] = assay: Antiproliferative activity against human PC3 cells at 3 uM by SRB assay; format: functional
HCT-15 [25] = assay: Antiproliferative activity against human HCT15 cells at 0.1 uM by SRB assay; format: functional
PC-3 [26] = assay: Antiproliferative activity against human PC3 cells at 10 uM by SRB assay; format: functional
HCT-15 [27] = assay: Antiproliferative activity against human HCT15 cells at 0.3 uM by SRB assay; format: functional
HCT-15 [28] = assay: Antiproliferative activity against human HCT15 cells at 3 uM by SRB assay; format: functional
HCT-15 [29] = assay: Antiproliferative activity against human HCT15 cells at 1 uM by SRB assay; format: functional
HCT-15 [30] = assay: Antiproliferative activity against human HCT15 cells at 10 uM by SRB assay; format: functional
[31] = biological target: Rho-related GTP-binding protein RhoB (Homo sapiens) (UniProt P62745); assay: Transactivation of RhoB in human HeLa cells by luciferase reporter assay; format: cell-based
NCI-H23 [32] = assay: Antiproliferative activity against human NCI-H23 cells by SRB assay; format: functional
NUGC-3 [33] = assay: Antiproliferative activity against human NUGC3 cells by SRB assay; format: functional
HCT-15 [34] = assay: Antiproliferative activity against human HCT15 cells by SRB assay; format: functional
ACHN [35] = assay: Antiproliferative activity against human ACHN cells by SRB assay; format: functional
MDA-MB-231 [36] = assay: Antiproliferative activity against human MDA-MB-231 cells by SRB assay; format: functional
PC-3 [37] = assay: Antiproliferative activity against human PC3 cells by SRB assay; format: functional

Rho-related GTP-binding protein RhoB (Homo sapiens), sequence (P62745 whole entry): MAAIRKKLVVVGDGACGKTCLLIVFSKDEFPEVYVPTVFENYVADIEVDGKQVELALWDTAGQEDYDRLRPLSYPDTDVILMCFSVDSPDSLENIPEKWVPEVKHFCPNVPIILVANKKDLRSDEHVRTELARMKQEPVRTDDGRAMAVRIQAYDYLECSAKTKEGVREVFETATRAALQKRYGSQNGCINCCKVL

Activity [31]: Active
GI50 (NCI-H23 [32]): 1.34 µM
GI50 (HCT-15 [34]): > 10 µM
GI50 (ACHN [35]): 2.6 µM
GI50 (MDA-MB-231 [36]): 1.54 µM
GI50 (PC-3 [37]): 0.44 µM
SMILES: CCCCCCCCCCCCCCCC(=O)NCC(C)(C)C[N+](C)(C)CC
growth, % of control at 0.3 µM (NUGC-3 [1]): 90.9%
growth, % of control at 0.1 µM (NUGC-3 [2]): 91.8%
growth, % of control at 1 µM (NUGC-3 [3]): 38.1%
growth, % of control at 10 µM (NUGC-3 [4]): 1.32%
growth, % of control at 3 µM (NUGC-3 [5]): 13.8%
growth, % of control at 0.1 µM (MDA-MB-231 [6]): 94.4%
growth, % of control at 0.3 µM (MDA-MB-231 [7]): 99.8%
growth, % of control at 1 µM (MDA-MB-231 [8]): 82.7%
growth, % of control at 10 µM (MDA-MB-231 [9]): 18.4%
growth, % of control at 3 µM (MDA-MB-231 [10]): 46.6%
growth, % of control at 0.1 µM (ACHN [11]): 93.7%
growth, % of control at 1 µM (ACHN [12]): 87.4%
growth, % of control at 0.3 µM (ACHN [13]): 92.4%
growth, % of control at 3 µM (ACHN [14]): 58.9%
growth, % of control at 10 µM (ACHN [15]): 34.5%
growth, % of control at 0.3 µM (NCI-H23 [16]): 101%
growth, % of control at 0.1 µM (NCI-H23 [17]): 108%
growth, % of control at 3 µM (NCI-H23 [18]): 43.1%
growth, % of control at 1 µM (NCI-H23 [19]): 85.6%
growth, % of control at 10 µM (NCI-H23 [20]): 3.85%
growth, % of control at 0.1 µM (PC-3 [21]): 103%
growth, % of control at 1 µM (PC-3 [22]): 38.5%
growth, % of control at 0.3 µM (PC-3 [23]): 94.2%
growth, % of control at 3 µM (PC-3 [24]): 4.52%
growth, % of control at 0.1 µM (HCT-15 [25]): 107%
growth, % of control at 10 µM (PC-3 [26]): -11.9%
growth, % of control at 0.3 µM (HCT-15 [27]): 103%
growth, % of control at 3 µM (HCT-15 [28]): 85.2%
growth, % of control at 1 µM (HCT-15 [29]): 99.5%
growth, % of control at 10 µM (HCT-15 [30]): 57%
GI50 (NUGC-3 [33]): 0.43 µM
